Measurements taken from US20160271160A1, “HCV POLYMERASE INHIBITORS” (MEDIVIR AB, priority 2013, published 2016).

Key:
Type in all cases: cell-based
HCV GT4a S282T = HCV GT4a S282T chimeric mutant replicon
Excerpt: (§1) The compound of Example 2 was further evaluated to assess the antiviral activity against genotypes 1-6 of HCV, both wild type and a number of clinically relevant mutant strains. The result of the evaluation together with the average EC50 of a genotypes and the corresponding values for compound 40ii of WO2014/058801 are summarised in Tables 2 and 3.

HCV GT1b (transient) = HCV GT1b (transient) replicon; conditions: Hepatitis C virus, wild type, geometric mean
Excerpt: as §1

HCV GT2a virus = test: HCV GT2a virus; conditions: Hepatitis C virus, wild type, geometric mean
Excerpt: as §1

[1] = test system: HCV GT1a NS5B in con1 background; test: HCV GT1a chimeric replicon; conditions: Hepatitis C virus
Excerpt: as §1

[2] = test system: HCV GT6a NS5B in con1 background; test: HCV GT6a chimeric replicon; conditions: Hepatitis C virus
Excerpt: as §1

HCV GT1b S282T = HCV GT1b S282T mutant replicon
Excerpt: as §1

[3] = test system: genotypes 1-6 of HCV, wild type; test: Wild type HCV genotype panel, average
Excerpt: as §1

HCV GT1a S282T = HCV GT1a S282T chimeric mutant replicon
Excerpt: as §1

[4] = test system: HCV GT4a NS5B in con1 background; test: HCV GT4a chimeric replicon; conditions: Hepatitis C virus
Excerpt: as §1

[5] = test system: HCV GT3a NS5B in con1 background; test: HCV GT3a chimeric replicon; conditions: Hepatitis C virus
Excerpt: as §1

HCV mutant strains = test: Mutant HCV panel, average
Excerpt: as §1

[6] = test system: HCV GT5a NS5B in con1 background; test: HCV GT5a chimeric replicon; conditions: Hepatitis C virus
Excerpt: as §1

HCV GT3a S282T = HCV GT3a S282T chimeric mutant replicon
Excerpt: as §1

HCV GT1b (stable) = HCV GT1b (stable) replicon; conditions: Hepatitis C virus, wild type, geometric mean
Excerpt: as §1

## CC(C)OC(=O)[C@H](C)OP(=O)(OC[C@H]1O[C@@H](n2ccc(=O)[nH]c2=O)[C@](C)(Cl)[C@@H]1O)Oc1ccccc1 (some centres unmarked) [Cpd. 40ii of WO2014/058801]
HCV GT4a S282T; HCV GT4a S282T, fold change of EC50
  FC vs WT: 12
HCV GT4a S282T; Hepatitis C virus, GT4A
  EC50: 1720 nM
HCV GT1b (transient)
  EC50: 93 nM
HCV GT2a virus
  EC50: 26 nM
[1]
  EC50: 140 nM
[2]
  EC50: 170 nM
HCV GT1b S282T; Hepatitis C virus, geometric mean
  EC50: 344 nM
HCV GT1b S282T; fold change of EC50
  FC vs WT: 3.7
[3]; Hepatitis C virus, wild type assays, arithmetic mean +/− SEM
  EC50: 114 nM
[3]; wild type, from AVG EC50
  potency increase vs cpd. 40ii of WO2014/058801: 1.0
HCV GT1a S282T; HCV GT1a S282T, fold change of EC50
  FC vs WT: 4.0
HCV GT1a S282T; Hepatitis C virus, GT1A
  EC50: 554 nM
[4]
  EC50: 149 nM
[5]
  EC50: 139 nM
HCV mutant strains; Hepatitis C virus, read-out: AVG EC50
  EC50: 746 nM
HCV mutant strains; {}
  potency increase vs cpd. 40ii of WO2014/058801: 1.0
[6]
  EC50: 105 nM
HCV GT3a S282T; HCV GT3a S282T, fold change of EC50
  FC vs WT: 2.6
HCV GT3a S282T; Hepatitis C virus, GT3A
  EC50: 366 nM
HCV GT1b (stable)
  EC50: 91 nM
